Reference: PubChem BioAssay AID504751 (National Center for Advancing Translational Sciences (NCATS), 2011)
Values after ≈ are worked out from the molar mass of the structure shown.

Test system: Kinetic aqueous solubility, PBS pH 7.4, LC-UV/MS
Experiment: Inhibitors of Cruzain: Aqueous Profiling Assay
Source text: Chagas Disease is a neglected tropical disease that affects over 16 million people in Latin America. The cysteine protease cruzain is essential for the survival Trypanosoma cruzi, the parasitic agent responsible for Chagas disease. Potential intervention for T. cruzi includes the inhibition of cruzain. This bioassay will summarize the ongoing development of small molecule cruzain inhbitiors. Currently, a screen of ~200k compounds and through extensive follow-up work a probe was identified. To further characterize the probe, it was tested in in vitro ADME assays. This bioassay provides profiling data on aqueous kinetic solubility (PBS @ pH 7.4), an important measure that affects in vivo bioavailability. NIH Chemical Genomics Center [NCGC] NIH Molecular Libraries Probe Production Centers Network [MLPCN] MLSCN Grant: DA024891-01 PI Name: Dr. Brian Shoichet; University of California, San Francisco
1. 8ul of reference and test compound stock solution were added to 392ul 100mM phosphate buffer (pH 7.4) 2. Sample tubes were shaken for 1 hr (1000 rpm) at room temperature 3. Samples were centrifuged (10 min at 12000 rpm) to precipitate un-dissolved particles 4. Supernatants were transferred to new tubes 5. Concentration of the supernatant was determined by LC-UV or LC-MS/MS

solubility: 5 µM (≈ 2.03 µg/mL)
SMILES: Cc1ccc(OCCn2c(CCNC(=O)C3CCCCC3)nc3ccccc32)cc1
